1 molecule from ChEMBL document CHEMBL4665905, “2-Amino-N-heteroaryl-nicotimamides as Na1.8 Inhibitors” (ACS Med Chem Lett, 2020) can be followed below.

For the assay, the target named is Sodium channel protein type 10 subunit alpha (Homo sapiens, UniProt Q9Y5Y9). The experiment in a line: Inhibition of human Nav1.8 expressed in HEK293 cells by whole cell patch clamp assay. The assay is classed as cell-based. A general note: Patch clamp records ionic current or voltage across a cell membrane.

Each structure is given as a SMILES string.

Sodium channel protein type 10 subunit alpha, sequence (Q9Y5Y9 whole entry): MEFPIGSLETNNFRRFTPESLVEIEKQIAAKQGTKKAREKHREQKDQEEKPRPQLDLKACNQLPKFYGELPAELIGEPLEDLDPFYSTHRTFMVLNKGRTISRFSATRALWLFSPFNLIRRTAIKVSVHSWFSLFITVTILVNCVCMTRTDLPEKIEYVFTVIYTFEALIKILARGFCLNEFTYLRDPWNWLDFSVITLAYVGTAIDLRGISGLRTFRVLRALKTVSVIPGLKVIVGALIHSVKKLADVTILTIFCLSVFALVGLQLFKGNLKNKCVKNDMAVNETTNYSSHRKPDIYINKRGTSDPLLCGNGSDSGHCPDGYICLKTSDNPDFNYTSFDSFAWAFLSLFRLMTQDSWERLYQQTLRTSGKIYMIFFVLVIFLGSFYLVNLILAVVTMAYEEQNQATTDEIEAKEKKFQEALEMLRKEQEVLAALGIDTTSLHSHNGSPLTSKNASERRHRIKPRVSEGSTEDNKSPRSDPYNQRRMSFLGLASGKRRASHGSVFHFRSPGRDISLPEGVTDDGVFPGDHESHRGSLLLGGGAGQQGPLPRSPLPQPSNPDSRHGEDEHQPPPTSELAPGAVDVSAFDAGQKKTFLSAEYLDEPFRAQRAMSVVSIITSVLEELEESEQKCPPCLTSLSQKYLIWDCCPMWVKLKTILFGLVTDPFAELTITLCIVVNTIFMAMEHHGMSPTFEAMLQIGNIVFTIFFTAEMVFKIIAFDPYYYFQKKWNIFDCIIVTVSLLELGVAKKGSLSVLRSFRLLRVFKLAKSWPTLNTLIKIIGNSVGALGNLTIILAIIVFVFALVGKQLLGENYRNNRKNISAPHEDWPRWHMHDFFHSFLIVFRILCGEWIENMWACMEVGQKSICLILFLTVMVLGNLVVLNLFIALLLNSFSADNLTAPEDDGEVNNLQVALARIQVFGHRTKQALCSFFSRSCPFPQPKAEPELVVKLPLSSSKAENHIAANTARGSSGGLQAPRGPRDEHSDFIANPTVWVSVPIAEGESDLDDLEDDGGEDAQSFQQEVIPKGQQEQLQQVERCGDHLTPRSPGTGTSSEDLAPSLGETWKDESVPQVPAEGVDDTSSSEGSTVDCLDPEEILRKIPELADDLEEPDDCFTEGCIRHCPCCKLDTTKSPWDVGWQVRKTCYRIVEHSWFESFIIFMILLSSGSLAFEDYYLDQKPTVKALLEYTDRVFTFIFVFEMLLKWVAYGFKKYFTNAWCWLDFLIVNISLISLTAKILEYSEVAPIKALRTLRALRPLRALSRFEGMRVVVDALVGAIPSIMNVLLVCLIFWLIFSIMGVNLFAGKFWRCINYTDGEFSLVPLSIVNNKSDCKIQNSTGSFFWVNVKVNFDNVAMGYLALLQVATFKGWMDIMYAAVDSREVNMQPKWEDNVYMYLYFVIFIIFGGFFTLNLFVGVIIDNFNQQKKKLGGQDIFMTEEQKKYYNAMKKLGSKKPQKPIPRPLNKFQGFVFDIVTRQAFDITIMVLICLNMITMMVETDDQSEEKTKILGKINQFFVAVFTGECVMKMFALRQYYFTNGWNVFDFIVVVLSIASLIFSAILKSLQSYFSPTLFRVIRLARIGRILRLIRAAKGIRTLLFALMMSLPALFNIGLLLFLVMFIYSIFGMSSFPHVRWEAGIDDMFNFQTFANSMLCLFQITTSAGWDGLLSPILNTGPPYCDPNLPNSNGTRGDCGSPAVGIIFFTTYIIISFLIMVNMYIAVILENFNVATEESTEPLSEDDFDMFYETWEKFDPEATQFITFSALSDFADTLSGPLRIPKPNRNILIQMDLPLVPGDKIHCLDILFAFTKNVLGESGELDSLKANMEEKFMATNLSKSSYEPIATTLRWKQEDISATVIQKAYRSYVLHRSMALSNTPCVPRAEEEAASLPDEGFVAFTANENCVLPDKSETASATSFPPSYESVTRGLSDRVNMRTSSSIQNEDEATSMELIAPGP

On to `NS(=O)(=O)c1cc(NC(=O)c2cc(Cl)cnc2N2CCCC(F)(F)CC2)ccn1`, for which inhibition was half-maximal at 3.9 nM (IC50).
